The record followed here is patent US20210030796A1, “METHOD FOR PRODUCING ANTIGEN-SPECIFIC T CELLS” (Thyas Co. Ltd., priority 2019, published 2021).

The test system of assay [1] is mononuclear cells from peripheral blood of a healthy subject (CD137+ T cells). Kind of assay: T cell activation by EBV-LMP2A antigenic peptide stimulation, CD137 flow cytometry. Type of assay: cell-based, human. The settings on record: addition of CMA (0.3 to 3 μM per Example 1), two samples of PBMC from a healthy subject. The procedure: Re-inoculate in a 24-well plate. Add 0.3 to 3 μM Concanamycin A to a medium and incubate at 37° C. and 5% CO2 for 2 hours. Add 10 μg/ml EBV LMP2A peptide and culture at 37° C. and 5% CO2 for 24 hours. Suspend 2×10^6 cells of peripheral blood mononuclear cells (PBMC) separated from peripheral blood of a healthy subject in a MEM-alpha medium added with 10% FBS, 200 U IL-2 and 20 μg/ml IL-15, and add 10 μg/ml EBV LMP2A peptide. Start culturing at 37° C. and 5% CO2. Replace the medium and divide the wells every 2 to 5 days according to amplification rate of the cells. Culture for 12 days. Collect the cells on day 12 and re-inoculate in a 24-well plate at 2×10^6 cells/well. Add 0.3 to 3 μM Concanamycin A to the medium and incubate at 37° C. and 5% CO2 for 2 hours. Then, add 10 μg/ml EBV LMP2A peptide and culture at 37° C. and 5% CO2 for 24 hours. After 24 hours, stain the cells with CD8-PerCP/Cy5.5 antibody and CD137-PE antibody, and analyze using a flow cytometer (BD FACS Aria II).
Background: Flow cytometry measures light scatter and fluorescence of single cells or particles in a stream.

In assay [2] the test system is mononuclear cells from peripheral blood of a leukemia patient (CD137-expressing T cells). Briefly: T cell activation by WT1 antigenic peptide stimulation, CD137 expression. The settings on record: FIG. 3; medium added with 1 μM CMA; two samples of PBMC from a leukemia patient. Type of assay: cell-based, human.

With `C/C=C/[C@H]1O[C@@](O)([C@@H](C)[C@H](O)[C@H](C)[C@H]2OC(=O)/C(OC)=C/C(C)=C/[C@@H](C)[C@@H](O)[C@@H](CC)[C@@H](O)[C@H](C)C/C(C)=C/C=C/[C@@H]2OC)C[C@@H](O[C@H]2C[C@@H](O)[C@H](OC(N)=O)[C@@H](C)O2)[C@@H]1C` [Concanamycin A], the “percentage of CD137+ T cells activated with EBV-LMP2A peptide” value in assay [1] (FIG. 1) is “increased”. Also, in assay [1] (FIG. 2), the “number of CD137+ T cells activated with EBV-LMP2A peptide” value is given as “increased”. Further, the “percentage of T cells activated (CD137-expressing) by WT1 peptide stimulation” value in assay [2] is on record as “induced”.
